From patent US6603023B2 (priority 1996, dated 2003)
Where “and” joins values, the source holds several entries; their conditions need not be identical. Identical values can stand only once. Like-named read-outs stand apart in the source and are kept apart here. Marks after values point to notes of the source that are not given here.

Experiments:
[1] = tested on: CCRF-CEM human T-cell acute lymphoblastic leukemia cell line; test: XTT cytotoxicity (cell growth inhibition), CCRF-CEM; conditions: for Rel. Value (potency relative to Epo B): CCRF-CEM leukemic cells
Description: (§1) The DC-3F hamster lung fibroblast cell line and its actinomycin D-selected sublines (DC-3F/ADII and DC-3F/ADX) were obtained from the Memorial Sloan-Kettering Cancer Center (MSKCC).
(§2) The drug-resistant cell lines were continuously cultured in the presence of the selecting agent, AD, DX, VBL or VM to maintain the drug resistant phenotypes. […] All cells were cultured in RPMI 1640-10% FBS at 37° C. 5% CO2 (see below).
(§3) The cells were cultured at an initial density of 5×10^4 cells/mL. They were maintained in a 5% CO2-humidified atmosphere at 37° C. in RPMI-1640 medium (GIBCO-BRL, Gaithersburg, Md.) containing penicillin (100 U/mL), streptomycin ([…]) (GIBCO-BRL) and 10% heat inactivate fetal bovine serum. Culture for cell suspension (such as for CCRF-CEM, P388 and sublines), were performed by the XTT-microculture tetrazonium method (Scudiero, D. A. et al., Cancer Res. 1988, 48, 4827-4833) in duplicate in 96-well microtiter plates.
(§4) 2′,3′-Bis(methoxy-4-nitro-5-sufophenyl)-5-[(phenylamino)carbonyl]2H-tetrazolium hyudroxide (XTT) was prepared at 1 mg/mL in prewarmed (37° C.) medium without serum. Phenazine methosulfate (PMS) and fresh XTT were mixed together to obtain 0.025 mM PMS-XTT solution (25 μL of the stock 5 mM PMS was added per 5 mL of 1 mg/mL XTT). Following a 72 h incubation, 50 μL of the assay aliquots were added to each well of the cell culture. After incubation at 37° C. for 4 h, absorbance at 450 nm and 630 nm was measured with a microplate reader (EL340, Bio-Tek Instruments, Inc., Winooski, Vt.).

CCRF-CEM/VM1 = test: cells; assay type: cell-based, human
Description: as §2, §3, §4

CCRF-CEM/VBL100 = test: cells; assay type: cell-based, human
Description: as §2, §3, §4

DC-3F/ADII = test: SRB cytotoxicity, DC-3F/ADII; assay type: cell-based, hamster; conditions: Table 3; read-out: IC50
Description: as §1, §2
(§5) The cytotoxicity of the drug toward the monolayer cell cultures (such as DC-3F, MCF-7, SK-N-As and sublines) was determined in 96-well microtiter plates by the SRB method as described by Skehan and co-workers (Skehan, P., et al., J. Natl. Cancer Inst. 1990, 82, 1107-1112) for measuring the cellular protein content. Cultures were fixed with trichloroacetic acid and then stained for 30 min with 0.4% suforhodamine B dissolved in 1% acetic acid. Unbound dye was removed by acetic acid washes, and the protein-bound dye was extracted with an unbuffered Tris base (tris(hydroxy-methyl)aminomethane) for determination of absorbance at 570 nm in a 96-well microtiter plate reader. The experiments were carried out in duplicate. Each run entailed six to seven concentrations of the tested drugs. Data were analyzed with the median-effect plot (Chou, T.-C. & Talalay, P. T. (1984) Adv. Enzyme Regul. 22, 27-55) using a previously described computer program (Chou, J., & Chou T.-C. 1987, Dose-effect analysis with microcomputers: Quantitation of ED50, synergism, antagonism, low-dose risk, reception-ligand binding and enzyme kinetics, IBM-PC software and manual, Biosoft, Cambridge, U.K.).
(§6) Concerning Table 3, experiments were carried out using the cell lines DC-3F (parent hamster lung cells), DC-3F/ADII (moderate multidrug-resistant (MDR) cells) and DC-3F/ADX (very strong MDR cells).

DC-3F/ADX = test: cells; assay type: cell-based, hamster; conditions: Table 3; read-out: IC50
Description: as §1, §2, §5, §6

[2] = tested on: DC-3F hamster lung fibroblast cell line; test: SRB cytotoxicity, DC-3F; assay type: cell-based; conditions: Table 3; read-out: IC50
Description: as §1, §2, §5

[3] = Table 6, single determinations, listed as 4, read-out: IC50
[4] = Table 6, single determinations, listed as 6, read-out: IC50
[5] = Table 6, single determinations, read-out: IC50
[6] = Table 7, CEM/VBL, read-out: IC50
[7] = Table 2, CCR-CEM/VM-1, read-out: IC50
[8] = Table 6, read-out: IC50 (mean ± of determinations, in parentheses)
[9] = Table 2, CCRF-CEM/VLB, read-out: IC50
[10] = Table 6, single determinations, listed as 9, read-out: IC50
[11] = Table 6, single determinations, listed as EPOTHILONE B (Natural), read-out: IC50

With `CC(=Cc1csc(C)n1)C1CC=CCCCC(C)C(O)C(C)C(=O)C(C)(C)C(O)CC(=O)O1` (centres unmarked) [#4] the IC50 ([1]; Table 6, single determinations, listed as 4) was 2120 nM, the IC50 ([1]; Table 7, CEM, listed as 4) was 2100 nM and the IC50 (CCRF-CEM/VM1; [3]) was 2760 nM. It also gave an IC50 (CCRF-CEM/VBL100; [3]) of 43000 nM and an IC50 (CCRF-CEM/VBL100; Table 7, CEM/VBL, listed as 4, read-out: IC50) of 43800 nM.

`CC(=Cc1csc(C)n1)C1CC=CCCCC(C)C(O)C(C)C(=O)C(C)(C)C(O)CC(=O)O1` (centres unmarked) [#6] was tested, and the IC50 [1] was 52 nM, the “Rel. Value (potency relative to Epo B)” value [1] was 1/149 and the IC50 ([1]; Table 6, single determinations, listed as 6) was 52 nM. The IC50 ([1]; Table 7, CEM, listed as 6) was 52 nM, the IC50 (CCRF-CEM/VM1; [4]) was 111 nM and the IC50 (CCRF-CEM/VBL100; [4]) was 35 nM. The IC50 (CCRF-CEM/VBL100; Table 7, CEM/VBL, listed as 6, read-out: IC50) was 35 nM and the IC50 (CCRF-CEM/VBL100; read-out: IC50) was 35 nM.

In the case of `C/C(=C\c1csc(C)n1)C1CC2OC2CCCCC(O)C(C)C(=O)C(C)(C)C(O)CC(=O)O1` (centres unmarked) [#15, 8-Desmethylepothilone A], the IC50 [1] is reported as 440 nM, the “Rel. Value (potency relative to Epo B)” value [1] is reported as 1/1257 and the IC50 ([1]; Table 1, XTT) is reported as 439 nM. For the same compound, the IC50 ([1]; Table 6, single determinations) was 439 nM, the IC50 ([1]; Table 7, CEM) was 439 nM and the “times less active than corresponding epothilone A counterpart (cytotoxicity)” value ([1]; see Table 1) was “approximately 200 times”. The IC50 (CCRF-CEM/VM1; Table 1, XTT, read-out: IC50) was 764 nM, the IC50 (CCRF-CEM/VM1; [5]) was 764 nM and the IC50 (CCRF-CEM/VBL100; Table 1, XTT, read-out: IC50) was 2470 nM. The IC50 (CCRF-CEM/VBL100; [5]) was 2470 nM and the IC50 (CCRF-CEM/VBL100; [6]) was 2470 nM.

For `C/C(=C\c1csc(C)n1)[C@@H]1C[C@@H]2O[C@@H]2CCC[C@H](C)[C@H](O)[C@@H](C)C(=O)C(C)(C)[C@@H](O)CC(=O)O1` [EPOTHILONE A NATURAL, epothilone A], the IC50 ([1]; Table 2) was 3.5 nM, the IC50 ([1]; Table 6, single determinations) was 2.4 nM and 3.1 nM and the IC50 ([1]; read-out: IC50 (mean ± of determinations, in parentheses), Table 6) was 2.7 nM. The IC50 (DC-3F/ADII) was 12.4 nM, the IC50 (DC-3F/ADX) was 53.3 nM and the IC50 [2] was 3.68 nM. The IC50 (CCRF-CEM/VM1; [7]) was 3.4 nM, the “relative resistance (fold) vs parent cell line” value (“relative resistance (fold)” below) (CCRF-CEM/VM1; Table 6) was “(2.3X)” and the IC50 (CCRF-CEM/VM1; [8]) was 6.13 nM. The IC50 (CCRF-CEM/VM1; [5]) was 6 nM and 6.25 nM, the IC50 (CCRF-CEM/VBL100; [9]) was 27.2 nM and the “relative resistance (fold)” value (CCRF-CEM/VBL100; Table 6) was “(7.4X)”. For the same compound, the IC50 (CCRF-CEM/VBL100; [8]) was 20 nM and the IC50 (CCRF-CEM/VBL100; [5]) was 21.1 nM and 18.9 nM.

With `CC(=Cc1csc(C)n1)C1CC=CCCCC(C)C(O)C(C)C(O)C(C)(C)C(O)CC(=O)O1` (centres unmarked) [#2] the IC50 ([1]; Table 2) was 14200 nM, the IC50 ([1]; Table 6, single determinations) was 14200 nM and the IC50 ([1]; Table 7, CEM) was 14200 nM. It also gave an IC50 ([1]; read-out: IC50 (A), Table 2A, parent cell line) of 14200 nM, an IC50 (DC-3F/ADII) of 4600 nM and an IC50 (DC-3F/ADX) of 4810 nM. The IC50 [2] was 10300 nM, the IC50 (CCRF-CEM/VM1; [7]) was 43900 nM and the “(C)/(A) ratio (fold resistance >1, collateral sensitivity <1)” value (CCRF-CEM/VM1; Table 2A) was “(309)^a”. The IC50 (CCRF-CEM/VM1; Table 2A, Topo II gene mutated cell line, read-out: IC50 (C)) was 43900 nM, the IC50 (CCRF-CEM/VM1; [5]) was 43900 nM and the IC50 (CCRF-CEM/VBL100; [9]) was 6280 nM. The “(B)/(A) ratio (fold resistance >1, collateral sensitivity <1)” value (CCRF-CEM/VBL100; Table 2A) was “(0.44)^b”, the IC50 (CCRF-CEM/VBL100; Table 2A, MDR cell line, read-out: IC50 (B)) was 6280 nM and the IC50 (CCRF-CEM/VBL100; [5]) was 6280 nM. For the same compound, the IC50 (CCRF-CEM/VBL100; [6]) was 6280 nM.

With epothilone B the IC50 ([1]; Table 6, single determinations) was 0.33 nM, the “relative resistance (fold)” value (CCRF-CEM/VM1; Table 6) was “(3.6X)” and the IC50 (CCRF-CEM/VM1; [5]) was 1.2 nM. For the same compound, the “relative resistance (fold)” value (CCRF-CEM/VBL100; Table 6) was “(6.1X)” and the IC50 (CCRF-CEM/VBL100; [5]) was 2.1 nM.

`C/C(=C\c1csc(C)n1)[C@@H]1C[C@@H]2O[C@]2(C)CCC[C@H](C)[C@H](O)[C@@H](C)C(=O)C(C)(C)[C@@H](O)CC(=O)O1` [#9, epothilone B] showed an IC50 ([1]; Table 6, single determinations, listed as 9) of 0.44 nM, an IC50 ([1]; Table 6, single determinations, listed as EPOTHILONE B (Natural)) of 0.17 nM and an IC50 ([1]; Table 7, CEM, listed as natural epothitone B) of 0.44 nM. For the same compound, the IC50 (CCRF-CEM/VM1; [10]) was 1.8 nM, the IC50 (CCRF-CEM/VM1; [11]) was 0.77 nM and the “relative resistance (fold)” value (CCRF-CEM/VBL100; Table 6) was “(7.0X)”. It also gave an IC50 (CCRF-CEM/VBL100; [10]) of 2.6 nM, an IC50 (CCRF-CEM/VBL100; [11]) of 1.7 nM and an IC50 (CCRF-CEM/VBL100; Table 7, CEM/VBL, listed as natural epothitone B, read-out: IC50) of 2.63 nM.
